One test has as its target human V1a receptor (Homo sapiens, UniProt P37288). Briefly: Cellular in vitro assay for determining vasopressin receptor activity, V1a receptor cell line (photoprotein luminescence). It is filed as cell-based. Conditions: for IC50: CHO cell line transfected with the human V1a receptor, agonist [Arg8]-vasopressin at EC50 concentration, read-out: IC50 hV1a; for ratio IC50 hV2/hV1a: selectivity ratio of the cellular IC50 values. In short, it runs like this: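 CHO K1 cells stably expressing human V1a receptor with aequorin photoprotein, loaded overnight with coelenterazine. Compounds preincubated 10 min at various concentrations, then challenged with [Arg^8]-vasopressin at EC50 concentration. Calcium-driven luminescence read immediately; IC50 values derived.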

In a further test the target is T1, human V2 receptor (Homo sapiens, UniProt P30518).
T1 construct: expressed in transfected cells; host or cells: CHO K1 (ATCC) expressing firefly luciferase under a CRE-responsive promoter
The test is described as follows: Cellular in vitro assay for determining vasopressin receptor activity, V2 receptor cell line (CRE-luciferase). In kind it is cell-based. The conditions noted are these: CHO cell line transfected with the human V2 receptor; agonist [Arg8]-vasopressin at EC50 concentration; read-out: IC50 hV2.

As usually defined, the IC50 is the concentration at which inhibition is half-maximal.

T1 sequence (P30518 whole entry): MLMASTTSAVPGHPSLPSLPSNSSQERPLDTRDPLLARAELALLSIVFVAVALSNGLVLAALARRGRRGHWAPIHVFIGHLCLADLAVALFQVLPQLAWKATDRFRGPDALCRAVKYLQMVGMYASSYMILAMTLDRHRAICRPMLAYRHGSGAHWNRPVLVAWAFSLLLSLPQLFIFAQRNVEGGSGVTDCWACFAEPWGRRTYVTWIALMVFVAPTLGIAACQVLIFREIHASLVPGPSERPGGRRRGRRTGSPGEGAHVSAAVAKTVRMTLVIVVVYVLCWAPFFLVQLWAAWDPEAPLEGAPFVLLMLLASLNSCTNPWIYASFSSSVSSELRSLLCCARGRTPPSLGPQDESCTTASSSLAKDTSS
Sequence of human V1a receptor (P37288 whole entry): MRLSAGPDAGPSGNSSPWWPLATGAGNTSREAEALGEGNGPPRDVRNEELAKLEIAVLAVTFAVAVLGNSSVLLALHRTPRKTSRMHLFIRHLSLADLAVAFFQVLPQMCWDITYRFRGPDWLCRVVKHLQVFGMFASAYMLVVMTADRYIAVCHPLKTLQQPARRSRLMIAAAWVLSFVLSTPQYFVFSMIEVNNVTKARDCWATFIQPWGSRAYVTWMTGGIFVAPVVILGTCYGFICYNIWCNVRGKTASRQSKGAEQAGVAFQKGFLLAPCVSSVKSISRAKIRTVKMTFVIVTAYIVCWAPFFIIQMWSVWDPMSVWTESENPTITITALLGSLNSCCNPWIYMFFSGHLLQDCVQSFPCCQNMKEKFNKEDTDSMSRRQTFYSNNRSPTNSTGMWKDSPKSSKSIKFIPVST

Consider `O=C1CN(c2nc(Cn3nc(-c4ccc(Cl)cc4)n(C[C@H](O)C(F)(F)F)c3=O)nn2CCC(F)(F)F)CCN1` [Example 112, 4-[3-({3-(4-Chlorophenyl)-5-oxo-4-[(2S)-3,3,3-trifluoro-2-hydroxypropyl]-4,5-dihydro-1H-1,2,4-triazol-1-yl}methyl)-1-(3,3,3-trifluoropropyl)-1H-1,2,4-triazol-5-yl]piperazin-2-one], for which, on human V1a receptor, the IC50 came to 114 nM and the “ratio IC50 hV2/hV1a” value was found to be 7.1. The half-inhibitory concentration (IC50) at human V2 receptor was 810 nM.
For the molecule `NC(=O)C1CN(c2nc(Cn3nc(-c4ccc(Cl)cc4)n(C[C@H](O)C(F)(F)F)c3=O)nn2CCC(F)(F)F)C1` [Example 113, 1-[3-({3-(4-Chlorophenyl)-5-oxo-4-[(2S)-3,3,3-trifluoro-2-hydroxypropyl]-4,5-dihydro-1H-1,2,4-triazol-1-yl}methyl)-1-(3,3,3-trifluoropropyl)-1H-1,2,4-triazol-5-yl]azetidine-3-carboxamide], the figures for the concentration for half-maximal inhibition (IC50) at human V1a receptor and at human V2 receptor were 37 nM and 360 nM, respectively. Also, the “ratio IC50 hV2/hV1a” value at human V1a receptor is recorded as 9.7.
As for `CC1(C)CN(c2nc(Cn3nc(-c4ccc(Cl)cc4)n(C[C@H](O)C(F)(F)F)c3=O)nn2CCC(F)(F)F)CCN1` [Example 114, 5-(4-Chlorophenyl)-2-{[5-(3,3-dimethylpiperazin-1-yl)-1-(3,3,3-trifluoropropyl)-1H-1,2,4-triazol-3-yl]methyl}-4-[(2S)-3,3,3-trifluoro-2-hydroxypropyl]-2,4-dihydro-3H-1,2,4-triazol-3-one], the half-maximal inhibitory concentration (IC50) at human V1a receptor came out at 10.3 nM; on human V2 receptor it was 1800 nM.
In the case of `CCOC(=O)CNc1nc(Cn2nc(-c3ccc(Cl)cc3)n(C[C@H](O)C(F)(F)F)c2=O)nn1-c1cccc(Cl)c1` [Example 115, Ethyl N-[1-(3-chlorophenyl)-3-({3-(4-chlorophenyl)-5-oxo-4-[(2S)-3,3,3-trifluoro-2-hydroxypropyl]-4,5-dihydro-1H-1,2,4-triazol-1-yl}methyl)-1H-1,2,4-triazol-5-yl]glycinate], the concentration for half-maximal inhibition (IC50) stood at 5.86 nM on human V1a receptor and 2.07 nM at human V2 receptor. Also, the “ratio IC50 hV2/hV1a” value at human V1a receptor came out at 0.4.
As to `COCCNc1nc(Cn2nc(-c3ccc(Cl)cc3)n(C[C@H](O)C(F)(F)F)c2=O)nn1-c1cccc(F)c1` [Example 116, 5-(4-Chlorophenyl)-2-({1-(3-fluorophenyl)-5-[(2-methoxyethyl)amino]-1H-1,2,4-triazol-3-yl}methyl)-4-[(2S)-3,3,3-trifluoro-2-hydroxypropyl]-2,4-dihydro-3H-1,2,4-triazol-3-one], on human V1a receptor, the half-maximal inhibitory concentration (IC50) was 1.35 nM and the “ratio IC50 hV2/hV1a” value is 1.5. Moreover, the 50% inhibitory concentration (IC50) at human V2 receptor was 1.98 nM.
For `O=c1n(Cc2nc(N3CCCC3)n(-c3cccc(Cl)c3)n2)nc(-c2ccc(Cl)cc2)n1C[C@H](O)C(F)(F)F` [Example 117, 5-(4-Chlorophenyl)-2-{[1-(3-chlorophenyl)-5-(pyrrolidin-1-yl)-1H-1,2,4-triazol-3-yl]methyl}-4-[(2S)-3,3,3-trifluoro-2-hydroxypropyl]-2,4-dihydro-3H-1,2,4-triazol-3-one] the same measures were 66.5 nM, 0.3 and 19.2 nM.
Consider `CNc1nc(Cn2nc(-c3ccc(Cl)cc3)n(C[C@H](O)C(F)(F)F)c2=O)nn1-c1cccc(Cl)c1` [Example 118, 5-(4-Chlorophenyl)-2-{[1-(3-chlorophenyl)-5-(methylamino)-1H-1,2,4-triazol-3-yl]methyl}-4-[(2S)-3,3,3-trifluoro-2-hydroxypropyl]-2,4-dihydro-3H-1,2,4-triazol-3-one], for which the values for the 50% inhibitory concentration (IC50) at human V1a receptor and at human V2 receptor were 16.4 nM and 1.04 nM, respectively. Moreover, on human V1a receptor, the “ratio IC50 hV2/hV1a” value turned out to be 0.1.
As to `O=c1n(Cc2nc(N3CCOCC3)n(-c3cccc(F)c3)n2)nc(-c2ccc(Cl)cc2)n1C[C@H](O)C(F)(F)F` [Example 119, 5-(4-Chlorophenyl)-2-{[1-(3-fluorophenyl)-5-(morpholin-4-yl)-1H-1,2,4-triazol-3-yl]methyl}-4-[(2S)-3,3,3-trifluoro-2-hydroxypropyl]-2,4-dihydro-3H-1,2,4-triazol-3-one], at human V1a receptor, the IC50 stood at 7.79 nM and the “ratio IC50 hV2/hV1a” value amounted to 2.2. On human V2 receptor, the 50% inhibitory concentration (IC50) was determined as 17.1 nM.
For the molecule `CN(C)c1nc(Cn2nc(-c3ccc(Cl)cc3)n(C[C@H](O)C(F)(F)F)c2=O)nn1-c1cccc(F)c1` [Example 120, 5-(4-Chlorophenyl)-2-{[5-(dimethylamino)-1-(3-fluorophenyl)-1H-1,2,4-triazol-3-yl]methyl}-4-[(2S)-3,3,3-trifluoro-2-hydroxypropyl]-2,4-dihydro-3H-1,2,4-triazol-3-one], the values for the IC50 at human V1a receptor and at human V2 receptor were 4.66 nM and 8.19 nM, respectively. Also, the “ratio IC50 hV2/hV1a” value on human V1a receptor amounted to 1.8.
For `O=c1n(Cc2nc(N3CCC3)n(-c3cccc(F)c3)n2)nc(-c2ccc(Cl)cc2)n1C[C@H](O)C(F)(F)F` [Example 121, 2-{[5-(Azetidin-1-yl)-1-(3-fluorophenyl)-1H-1,2,4-triazol-3-yl]methyl}-5-(4-chlorophenyl)-4-[(2S)-3,3,3-trifluoro-2-hydroxypropyl]-2,4-dihydro-3H-1,2,4-triazol-3-one] the same measures were 6.4 nM, 6.12 nM and 1.0.
`CC1(C)CN(c2nc(Cn3nc(-c4ccc(Cl)cc4)n(C[C@H](O)C(F)(F)F)c3=O)nn2-c2ncccc2Cl)CCN1` [Example 122, 5-(4-Chlorophenyl)-2-{[1-(3-chloropyridin-2-yl)-5-(3,3-dimethylpiperazin-1-yl)-1H-1,2,4-triazol-3-yl]methyl}-4-[(2S)-3,3,3-trifluoro-2-hydroxypropyl]-2,4-dihydro-3H-1,2,4-triazol-3-one]: on human V1a receptor, the 50% inhibitory concentration (IC50) came out at 0.97 nM and the “ratio IC50 hV2/hV1a” value was 1606.2. Further, the 50% inhibitory concentration (IC50) on human V2 receptor was 1550 nM.
Take `O=c1n(Cc2nc(NCCO)n(-c3cccc(F)c3)n2)nc(-c2ccc(Cl)cc2)n1C[C@H](O)C(F)(F)F` [Example 123, 5-(4-Chlorophenyl)-2-({1-(3-fluorophenyl)-5-[(2-hydroxyethyl)amino]-1H-1,2,4-triazol-3-yl}methyl)-4-[(2S)-3,3,3-trifluoro-2-hydroxypropyl]-2,4-dihydro-3H-1,2,4-triazol-3-one]: the 50% inhibitory concentration (IC50) at human V1a receptor is 2.15 nM; at human V2 receptor, 4.59 nM. Further, on human V1a receptor, the “ratio IC50 hV2/hV1a” value is 2.1.

The values are drawn from patent publication US11331314B2, “Amine substituted triazole derivatives and uses thereof” (Bayer Pharma Aktiengesellschaft, priority 2017, dated 2022).
